From patent EP1001930B1, “N-HYDROXYFORMAMIDE DERIVATIVES AS INHIBITORS OF MATRIX METALLOPROTEINASES” (Abbott Laboratories, priority 1997, dated 1999)

Target: T1, Recombinant truncated stromelysin (human sequence) (Homo sapiens, UniProt P08254)
T1 construct: made in house; host or cells: E. coli
Assay: Determination of stromelysin inhibition (cleavage of thiopeptide ester substrate, DTNB colour read at 405 nm)
Format: biochemical
Details: substrate Ac-Pro-Leu-Gly-[2-mercapto-4-methylpentanoyl]-Leu-Gly-OEt; 30 minute assay at ambient temperature; 50 mM MES/NaOH pH 6.5 with 10 mM CaCl2 and 0.2% Pluronic F-68
Experimental: The efficacy of the compounds of this invention as matrix metalloproteinase inhibitors was determined by measuring the inhibition of stromelysin. The inhibition of stromelysin by the compounds of this invention was determined as follows: Recombinant truncated stromelysin (human sequence) produced in E. coli was prepared by expression and purification of the protein as described by Ye et al. (Biochemistry, 1992, 31, 11231-11235, which is incorporated herein by reference). The enzyme was assayed by its cleavage of the thiopeptide ester substrate Ac-Pro-Leu-Gly-[2-mercapto-4-methylpentanoyl]-Leu-Gly-OEt as described by Weingarten and Feder (Anal. Biochem., 1985, 147, 437-440 (1985), which is incorporated herein by reference) as a substrate of vertebrate collagenase. The reported conditions were modified to allow assays to be carried out in a microtiter plate. Upon hydrolysis of the thioester bond, the released thiol group reacted rapidly with 5,5'-dithio-bis(2-nitrobenzoic acid) (DTNB) to produce a yellow color which was measured by a microtiter plate reader set at 405 nm. The rates of cleavage of the substrate by stromelysin in the presence or absence of inhibitors were measured in a 30 minute assay at ambient temperature. Solutions of the compounds in DMSO were prepared, and these were diluted at various concentrations into the assay buffer (50 mM MES/NaOH pH 6.5 with 10 mM CaCl2 and 0.2% Pluronic F-68), which was also used for dilution of the enzyme and substrate. The potency of the compounds [IC50] was calculated from the inhibition/inhibitor concentration data.

T1 sequence (P08254 100-272 limits assumed): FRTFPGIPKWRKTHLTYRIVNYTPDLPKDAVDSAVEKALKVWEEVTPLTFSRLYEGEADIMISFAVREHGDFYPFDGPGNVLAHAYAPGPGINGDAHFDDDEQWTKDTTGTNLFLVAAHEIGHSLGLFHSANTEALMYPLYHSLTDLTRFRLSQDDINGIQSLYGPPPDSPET

Compared with `N#Cc1ccc(-c2ccc(OCCN(O)C=O)cc2)cc1` [Example 15], `CC(=O)N(O)CCOc1ccc(-c2ccc(C#N)cc2)cc1` [Example 14, N-[2-[(4'-cyano-[1,1'-biphenyl]-4-yl)oxy]ethyl]-N-hydroxyacetamide] is 6.5-fold higher in IC50: 620 nM for the first, 4000 nM for the second. The first is the more potent here.

First: Cc1ccc(CC(COc2ccc(-c3ccc(C#N)cc3)cc2)N(O)C=O)cc1 (racemic) [Example 10, (±)-N-[1-[[(4'-cyano-[1,1'-biphenyl]-4-yl)oxy]methyl]-2-(4-methylphenyl)ethyl]-N-hydroxyformamide]
Second: N#Cc1ccc(-c2ccc(OCC(Cc3ccc(F)cc3)N(O)C=O)cc2)cc1 (racemic) [Example 12, (±)-N-[1-[[(4'-cyano-[1,1'-biphenyl]-4-yl)oxy]methyl]-2-(4-fluorophenyl)ethyl]-N-hydroxyformamide]
The IC50 of the first is 8.3-fold higher: 1500 nM for the first, 180 nM for the second.

Going from `N#Cc1ccc(-c2ccc(OCC(CN3C(=O)c4ccccc4C3=O)N(O)C=O)cc2)cc1` (racemic) [Example 3, (±)-N-[1-[[(4'-cyano-[1,1'-biphenyl]-4-yl)oxy]methyl]-2-(2,3-dihydro-1,3-dioxo-1H-isoindol-2-yl)ethyl]-N-hydroxyformamide] to `N#Cc1ccc(-c2ccc(OCC(COc3ccccc3)N(O)C=O)cc2)cc1` (racemic) [Example 1, (±)-N-[1-[[(4'-cyano-[1,1'-biphenyl]-4-yl)oxy]methyl]-2-phenoxyethyl]-N-hydroxyformamide], the IC50 rises from 21 nM to 130 nM (6.2-fold).

Compared with `CCCCC(COc1ccc(-c2cccc(CC#N)c2)cc1)N(O)C=O` (racemic) [Example 6, (±)-N-[1-[[[3'-(cyanomethyl)-[1,1'-biphenyl]-4-yl]oxy]methyl]pentyl]-N-hydroxyformamide], `CCCCC(COc1ccc(-c2ccc(C#N)cc2)cc1)N(O)C=O` (racemic) [Example 9, (±)-N-[1-[[(4'-cyano-[1,1'-biphenyl]-4-yl)oxy]methyl]pentyl]-N-hydroxyformamide] is 3.3-fold higher in IC50: 30 nM for the first, 100 nM for the second. The first is the more potent here.

Going from `CCC(C)C(COc1ccc(-c2ccc(C#N)cc2)cc1)N(O)C=O` (racemic) [Example 8, (± )-N-[1-[[(4'-cyano-[1,1'-biphenyl]-4-yl)oxy]methyl]-2-methylbutyl]-N-hydroxyformamide] to `CC(COc1ccc(-c2ccc(C#N)cc2)cc1)N(O)C=O` (racemic) [Example 13, (±)-N-[1-[[(4'-cyano-[1,1'-biphenyl]-4-yl)oxy]methyl]ethyl]-N-hydroxyformamide], the IC50 rises from 170 nM to 310 nM (1.8-fold). The first is the more potent here.

Going from `N#Cc1ccc(-c2ccc(OCC(CSc3ccccc3)N(O)C=O)cc2)cc1` (racemic) [Example 2, (±)-N-[1-[[(4'-cyano-[1,1'-biphenyl]-4-yl)oxy]methyl]-2-(phenylthio)ethyl]-N-hydroxyformamide] to `N#Cc1ccc(-c2ccc(OCC(c3ccc(F)cc3)N(O)C=O)cc2)cc1` (racemic) [Example 11, (±)-N-[2-[(4'-cyano-[1,1'-biphenyl]-4-yl)oxy]-1-(4-fluorophenyl)ethyl)-N-hydroxyformamide], the IC50 rises from 36 nM to 300 nM (8.3-fold).
